Laboratory results reported in patent US20220041583A1, “IMMUNOMODULATORS, COMPOSITIONS AND METHODS THERE OF” (BETTA PHARMACEUTICALS CO., LTD, priority 2018, published 2022).

Biological target: T1, PD-1/PD-L1 (Homo sapiens, UniProt Q9NZQ7)
T1 construct: Recombinant human PD-L1 protein (19-238) with a His-tag at the C-terminus; purchased AcroBiosystems PD1-H5229 (PD-L1); PD1-H5257 (PD-1)
Assay: PD-1/PD-L1 homogenous time-resolved fluorescence (HTRF) binding assay
Settings: Table 6, class symbols
Method: Resolved Fluorescence (HTRF) Binding Assay
The assays were conducted in a standard black 384-well polystyrene plate with a final volume of 20 μL. Inhibitors were first serially diluted in DMSO and then added to the plate wells before the addition of other reaction components. The final concentration of DMSO in the assay was 1%. The assays were carried out at 25° C. in the PBS buffer (pH 7.4) with 0.05% Tween-20 and 0.1% BSA. Recombinant human PD-L1 protein (19-238) with a His-tag at the C-terminus was purchased from AcroBiosy stems (PD1-H5229). Recombinant human PD-1 protein (25-167) with Fc tag at the C-terminus was also purchased from AcroBiosystems (PD1-H5257). PD-L1 and PD-1 proteins were diluted in the assay buffer and 10 μL was added to the plate well. Plates were centrifuged and proteins were preincubated with inhibitors for 40 min. The incubation was followed by the addition of 10 μL of HTRF detection buffer supplemented with Europium cryptate-labeled anti-human IgG (PerkinElmer-AD0212) specific for Fc and anti-His antibody conjugated to SureLight®-Allophycocyanin (APC, PerkinElmer-AD0059H). After centrifugation, the plate was incubated at 25° C. for 60 min. Before reading on a PHERAstar FS plate reader (665 nm/620 nm ratio). Final concentrations in the assay were […] PD1, 10 nM PD-L1, 1 nM europium anti-human IgG and 20 nM anti-His-Allophycocyanin. IC50 determination was performed by fitting the curve of percent control activity versus the log of the inhibitor concentration using the GraphPad Prism 5.0 software.

T1 sequence (Q9NZQ7 19-238): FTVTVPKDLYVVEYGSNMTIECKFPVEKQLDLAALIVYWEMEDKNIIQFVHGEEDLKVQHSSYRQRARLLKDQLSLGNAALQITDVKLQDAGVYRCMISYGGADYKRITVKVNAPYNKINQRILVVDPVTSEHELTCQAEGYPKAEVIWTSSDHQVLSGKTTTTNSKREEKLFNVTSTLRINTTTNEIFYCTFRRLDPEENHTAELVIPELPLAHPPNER

Compared with `CSc1cc2oc(-c3cccc(-c4ccccc4)c3C)nc2cc1CN[C@@H](C(=O)O)[C@@H](C)O` [Example 3, ((2-(2-methyl-[1,1′-biphenyl]-3-yl)-6-(methylthio)benzo[d]oxazol-5-yl)methyl)-D-allothreonine], `CSc1cc2oc(-c3cccc(-c4ccccc4)c3C)nc2cc1CN[C@H](C(=O)O)[C@H](C)O` [Example 4, ((2-(2-methyl-[1,1′-biphenyl]-3-yl)-6-(methylthio)benzo[d]oxazol-5-yl)methyl)-L-allothreonine] is lower in IC50: 0.01 to 0.1 µM for the first, 0.0001 to 0.01 µM for the second. The second is the more potent here.

First: CSc1cc2oc(-c3cccc(-c4ccccc4)c3C)nc2cc1CN[C@@H](C)C(=O)O [Example 5, ((2-(2-methyl-[1,1′-biphenyl]-3-yl)-6-(methylthio)benzo[d]oxazol-5-yl)methyl)-L-alanine]
Second: CSc1cc2oc(-c3cccc(-c4ccccc4)c3C)nc2cc1CN[C@H](C)C(=O)O [Example 6, ((2-(2-methyl-[1,1′-biphenyl]-3-yl)-6-(methylthio)benzo[d]oxazol-5-yl)methyl)-D-alanine]
The IC50 of the first is lower: 0.0001 to 0.01 µM for the first, 0.01 to 0.1 µM for the second.

First: CSc1cc2oc(-c3cccc(-c4ccccc4)c3C)nc2cc1CN1CCC[C@@H]1C(=O)O [Example 7, ((2-(2-methyl-[1,1′-biphenyl]-3-yl)-6-(methylthio)benzo[d]oxazol-5-yl)methyl)-D-proline]
Second: Cc1c(-c2ccccc2)cccc1-c1nc2cc(CN3CCC[C@H]3C(=O)O)c(O)cc2o1 [Example 21, ((6-hydroxy-2-(2-methyl-[1,1′-biphenyl]-3-yl)benzo[d]oxazol-5-yl)methyl)-L-proline]
The IC50 of the first is lower: 0.0001 to 0.01 µM for the first, 0.01 to 0.1 µM for the second. The first is the more potent here.

First: CSc1cc2oc(-c3cccc(-c4ccccc4)c3C)nc2cc1CN1CCCCC1CO (centres unmarked) [Example 8, (1-((2-(2-methyl-[1,1′-biphenyl]-3-yl)-6-(methylthio)benzo[d]oxazol-5-yl)methyl)piperidin-2-yl)methanol]
Second: CSc1cc2oc(-c3cccc(-c4ccccc4)c3C)nc2cc1CN1CCOC[C@H]1C(=O)O [Example 9, (S)-4-((2-(2-methyl-[1,1′-biphenyl]-3-yl)-6-(methylthio)benzo[d]oxazol-5-yl)methyl)morpholine-3-carboxylic acid]
The IC50 of the first is higher: 0.01 to 0.1 µM for the first, 0.0001 to 0.01 µM for the second.

First: CC[C@H](NCc1cc2nc(-c3cccc(-c4ccccc4)c3C)oc2cc1SC)C(=O)O [Example 10, (S)-2-(((2-(2-methyl-[1,1′-biphenyl]-3-yl)-6-(methylthio)benzo[d]oxazol-5-yl)methyl)amino)butanoic acid]
Second: CC[C@@H](NCc1cc2nc(-c3cccc(-c4ccccc4)c3C)oc2cc1SC)C(=O)O [Example 11, (R)-2-(((2-(2-methyl-[1,1′-biphenyl]-3-yl)-6-(methylthio)benzo[d]oxazol-5-yl)methyl)amino)butanoic acid]
The IC50 of the first is lower: 0.0001 to 0.01 µM for the first, 0.01 to 0.1 µM for the second.

`CSc1cc2oc(-c3cccc(-c4ccccc4)c3C)nc2cc1CN[C@H](CO)C(=O)O` [Example 12, ((2-(2-methyl-[1,1′-biphenyl]-3-yl)-6-(methylthio)benzo[d]oxazol-5-yl)methyl)-D-serine] and `CSc1cc2oc(-c3cccc(-c4ccccc4)c3C)nc2cc1CN[C@@H](CO)C(=O)O` [Example 13, ((2-(2-methyl-[1,1′-biphenyl]-3-yl)-6-(methylthio)benzo[d]oxazol-5-yl)methyl)-L-serine] fall in the same range of IC50: 0.0001 to 0.01 µM for the first, 0.0001 to 0.01 µM for the second.

`CSc1cc2oc(-c3cccc(-c4ccccc4)c3C#N)nc2cc1CN1CCC[C@H]1C(=O)O` [Example 14, ((2-(2-cyano-[1,1′-biphenyl]-3-yl)-6-(methylthio)benzo[d]oxazol-5-yl)methyl)-L-proline] and `Cc1cc2oc(-c3cccc(-c4ccccc4)c3C#N)nc2cc1CN1CCC[C@@H]1C(=O)O` [Example 17, ((2-(2-cyano-[1,1′-biphenyl]-3-yl)-6-methylbenzo[d]oxazol-5-yl)methyl)-D-proline] fall in the same range of IC50: 0.0001 to 0.01 µM for the first, 0.0001 to 0.01 µM for the second.

First: CSc1cc2oc(-c3cccc(-c4ccccc4C#N)c3C#N)nc2cc1CN1CCC[C@H]1C(=O)O [Example 15, ((2-(2,2′-dicyano-[1,1′-biphenyl]-3-yl)-6-(methylthio)benzo[d]oxazol-5-yl)methyl)-L-proline]
Second: Cc1cc2oc(-c3cccc(-c4ccccc4)c3C#N)nc2cc1CN1CCC[C@H]1C(=O)O [Example 18, ((2-(2-cyano-[1,1′-biphenyl]-3-yl)-6-methylbenzo[d]oxazol-5-yl)methyl)-L-proline]
The IC50 of the first is higher: 0.01 to 0.1 µM for the first, 0.0001 to 0.01 µM for the second.

`CSc1cc2oc(-c3cccc(-c4ccccc4)c3C)nc2cc1CN1CCCC1(C)C(=O)O` (centres unmarked) [Example 16, 2-methyl-1-((2-(2-methyl-[1,1′-biphenyl]-3-yl)-6-(methylthio)benzo[d]oxazol-5-yl)methyl)pyrrolidine-2-carboxylic acid] and `CNc1cc2oc(-c3cccc(-c4ccccc4)c3C)nc2cc1CN1CCCCC1C(=O)O` (centres unmarked) [Example 27, 1-((2-(2-methyl-[1,1′-biphenyl]-3-yl)-6-(methylamino)benzo[d]oxazol-5-yl)methyl)piperidine-2-carboxylic acid] fall in the same range of IC50: 0.0001 to 0.01 µM for the first, 0.0001 to 0.01 µM for the second.

`Cc1cc2oc(-c3cccc(-c4ccccc4)c3C#N)nc2cc1CN1CCOC[C@H]1C(=O)O` [Example 19, (S)-4-((2-(2-cyano-[1,1′-biphenyl]-3-yl)-6-methylbenzo[d]oxazol-5-yl)methyl)morpholine-3-carboxylic acid] and `Cc1c(-c2ccccc2)cccc1-c1nc2cc(CN3CCCCC3C(=O)O)c(C#N)cc2o1` (centres unmarked) [Example 26, 1-((6-cyano-2-(2-methyl-[1,1′-biphenyl]-3-yl)benzo[d]oxazol-5-yl)methyl)piperidine-2-carboxylic acid] fall in the same range of IC50: 0.0001 to 0.01 µM for the first, 0.0001 to 0.01 µM for the second.

For `Cc1c(-c2ccccc2)cccc1-c1nc2cc(CN3CC[C@H](O)C3)c(F)cc2o1` [Example 23, (S)-1-((6-fluoro-2-(2-methyl-[1,1′-biphenyl]-3-yl)benzo[d]oxazol-5-yl)methyl)pyrrolidin-3-ol], the IC50 was 0.01 to 0.1 µM.

Same assay, conditions: Table 6, numeric values

Point of comparison: `Cc1c(-c2ccccc2)cccc1-c1nc2cc(CN[C@H](C(=O)O)[C@H](C)O)c(OC(F)F)cc2o1` [Example 31, ((6-(difluoromethoxy)-2-(2-methyl-[1,1′-biphenyl]-3-yl)benzo[d]oxazol-5-yl)methyl)-L-allothreonine], IC50 0.0032 µM. Against it:
- CSc1cc2oc(-c3cccc(-c4ccccc4)c3C)nc2cc1CN1CCCC[C@H]1C(=O)O [Example 1, (S)-1-((2-(2-methyl-[1,1′-biphenyl]-3-yl)-6-(methylthio)benzo[d]oxazol-5-yl)methyl)piperidine-2-carboxylic acid] — 1.7-fold lower, 0.0019 µM
- Cc1c(-c2ccccc2)cccc1-c1nc2cc(CN3CCC[C@H]3C(=O)O)c(F)cc2o1 [Example 24, ((6-fluoro-2-(2-methyl-[1,1′-biphenyl]-3-yl)benzo[d]oxazol-5-yl)methyl)-L-proline] — 2.2-fold higher, 0.0072 µM
- Cc1c(-c2ccccc2)cccc1-c1nc2cc(CN3CCCC[C@H]3C(=O)O)c(F)cc2o1 [Example 25, (S)-1-((6-fluoro-2-(2-methyl-[1,1′-biphenyl]-3-yl)benzo[d]oxazol-5-yl)methyl)piperidine-2-carboxylic acid] — 2.3-fold higher, 0.0074 µM
- Cc1c(-c2ccccc2)cccc1-c1nc2cc(CN[C@@H](C(=O)O)[C@@H](C)O)c(OC(F)F)cc2o1 [Example 30, ((6-(difluoromethoxy)-2-(2-methyl-[1,1′-biphenyl]-3-yl)benzo[d]oxazol-5-yl)methyl)-D-allothreonine] — within 1.5-fold, 0.0048 µM
